Measurements reported in the supplement of paper PMC11208160.

Assay: recombinant UMI read abundance after kanamycin selection (control-corrected) (log10(CPM+1)); higher = more efficient recombination; extreme values may be limits of the assay; sequences stand for … in AGTGCAGAGAAAATCGGCCAGTTTTCTCTGCCTGCAGTCCGCATGCCGTGGGACCCCTTGGGTTCTAACCTGTTGCCTAGATTTATGCAGCGGACTGCCTTTCTCCCAAAGTGATAAACCGG…AGGTTGGTTTCACT; site = the 11-nt donor
Outline: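 For the IS621 bridge recombinase, a pooled Escherichia coli screen tested donor and donor-binding-loop pairs. Cells received the pair library together with a target plasmid encoding a fixed target and T7-inducible recombinase, then went onto IPTG (0.07 mM) plus kanamycin or unselected plates in duplicate. After PCR across the donor–target junction and sequencing, recombinant UMI counts were normalized to CPM, averaged, and scaled by control-derived factors. Each value is given as log10(CPM+1).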
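Note: IS621 bridge recombinase in Escherichia coli cells against a fixed T5 target plasmid.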

| Sequence | recombinant UMI read abundance (log10) |
| --- | --- |
| CTGGAGTCATGGACCGGTTTTCCCGGTAATCCGTATTTGCC (site CCGGAGTCTGG) | 1.26 |
| GACAACCCATGGACCGGTTTTCCCGGTAATCCGTATTTGGT (site GACAATCCTAC) | 0 |
| GCTTGCCCATGGACCGGTTTTCCCGGTAATCCGTATTTGCT (site GCTTGCCCTAC) | 0.00338 |
| CGCCGTACATGGACCGGTTTTCCCGGTAATCCGTATTTGTT (site CGCCGTACTAA) | 1.23 |
| CTAGAACCATGGACCGGTTTTCCCGGTAATCCGTATTTGAG (site CTAGAACCTCT) | 0.09 |
| GGATAAACATGGACCGGTTTTCCCGGTAATCCGTATTTGCC (site GGATAGACTGG) | 0 |
| CTGGTTTCATGGACCGGTTTTCCCGGTAATCCGTATTTGAC (site CTAGTATCTGT) | 0.542 |
| CACTCCTCATGGACCGGTTTTCCCGGTAATCCGTATTTGCC (site CAATCCTCTGG) | 0.883 |
| TCGAAGCCATGGACCGGTTTTCCCGGTAATCCGTATTTGGG (site TCGAAGCCTCC) | 0.0129 |
| CTGGAGTCATGGACCGGTTTTCCCGGTAATCCGTATTTGCC (site CGGGAGTCTGG) | 0 |
| CAAGCGCCATGGACCGGTTTTCCCGGTAATCCGTATTTGGG (site CAAGCGCCTCA) | 0.0177 |
| AAACAGACATGGACCGGTTTTCCCGGTAATCCGTATTTGGA (site AAACAGACTTC) | 0.991 |
| CTAGTGTCATGGACCGGTTTTCCCGGTAATCCGTATTTGGT (site CTAGTGTCTAC) | 2.6 |
| ATCCTAGCATGGACCGGTTTTCCCGGTAATCCGTATTTGTT (site ATCCTAGCTAA) | 0.0177 |
| AGTAAGACATGGACCGGTTTTCCCGGTAATCCGTATTTGAG (site AGTAAGACTCT) | 1.72 |
| CTCAGACCATGGACCGGTTTTCCCGGTAATCCGTATTTGCG (site CTCAGACCTCG) | 0 |
| GGTCCAACATGGACCGGTTTTCCCGGTAATCCGTATTTGCA (site GGTCCAACTTA) | 0.0117 |
| GCTACTGCATGGACCGGTTTTCCCGGTAATCCGTATTTGCC (site GCTACTGCTGT) | 0 |
| CGTTAGACATGGACCGGTTTTCCCGGTAATCCGTATTTGAG (site TGTTAGACTCT) | 0.0126 |

| Sequence | recombinant UMI read abundance (log10) |
| --- | --- |
| TCCACCGCATGGACCGGTTTTCCCGGTAATCCGTATTTGCG (site TCCACGGCTCG) | 0 |
| CTTCTCTCATGGACCGGTTTTCCCGGTAATCCGTATTTGTA (site CATCTCTCTTA) | 0.954 |
| TCTGGCGCATGGACCGGTTTTCCCGGTAATCCGTATTTGCC (site TCTGGCGCTGG) | 0 |
| ACAGGATCATGGACCGGTTTTCCCGGTAATCCGTATTTGCC (site ACAGTATCTTG) | 0 |
| CCGTAAGCATGGACCGGTTTTCCCGGTAATCCGTATTTGTG (site CCGTGAGCTCA) | 0.011 |
| AGGAAGACATGGACCGGTTTTCCCGGTAATCCGTATTTGGA (site AGGAAGACTTA) | 1.71 |
| CGGAATCCATGGACCGGTTTTCCCGGTAATCCGTATTTGTT (site CGTAATCCTAT) | 0 |
| CGGGAGTCATGGACCGGTTTTCCCGGTAATCCGTATTTGCC (site CTGGAGTCTGG) | 2.06 |
| AGAAAGACATGGACCGGTTTTCCCGGTAATCCGTATTTGCT (site AGAAAGGCTAG) | 1.02 |
| CACGCAGCATGGACCGGTTTTCCCGGTAATCCGTATTTGCT (site CAGGCAGCTAG) | 0.261 |
| TAACGTCCATGGACCGGTTTTCCCGGTAATCCGTATTTGTA (site TAAGGTCCTTA) | 0.0133 |
| CCCCTCTCATGGACCGGTTTTCCCGGTAATCCGTATTTGGG (site CCCGTCTCTCC) | 0.00587 |
| GAATGGCCATGGACCGGTTTTCCCGGTAATCCGTATTTGCA (site GAATGACCTTG) | 0 |
| ACTAGAACATGGACCGGTTTTCCCGGTAATCCGTATTTGAC (site ACTAGAACTAT) | 0.00676 |
| CACTTCTCATGGACCGGTTTTCCCGGTAATCCGTATTTGGG (site CACTTCTCTCC) | 0.00463 |
| CACTCCTCATGGACCGGTTTTCCCGGTAATCCGTATTTGCC (site CACTCCTCTCG) | 0.00305 |
| CGATCATCATGGACCGGTTTTCCCGGTAATCCGTATTTGCT (site CGGTCATCTAA) | 0.0171 |
| CAAGCGCCATGGACCGGTTTTCCCGGTAATCCGTATTTGTG (site CAAGCTCCTCA) | 0.185 |
